Test results reported in patent US9200017B2, “Multimodal imaging of fibrin” (The General Hospital Corporation, priority 2009, dated 2015).
Positions of bridges follow the written chain, without caps; N, C: chain ends. Non-standard residues stand in square brackets, D forms with d. Residues, ends and D or L forms follow the SMILES beside them. *: point of attachment. DOTA(p-xylylenediamine) = O=C(O)CN1CCN(CC(=O)O)CCN(CC(=O)NCc2ccc(CN*)cc2)CCN(CC(=O)O)CC1; X1 = O=C1OC2(c3ccc(O)cc3Oc3cc(O)ccc32)c2ccc(NC(=S)NCc3ccc(CN*)cc3)cc21; FITC = O=C1OC2(c3ccc(O)cc3Oc3cc(O)ccc32)c2ccc(NC(=S)*)cc21; DOTA = O=C(O)CN1CCN(CC(=O)O)CCN(CC(=O)*)CCN(CC(=O)O)CC1; Tyr(3-Cl) = N[C@@H](Cc1ccc(O)c(Cl)c1)C(=O)O; Hyp = O=C(O)[C@@H]1C[C@@H](O)CN1; Ahx = NCCCCCC(=O)O

Key:
Human fibrin = biological target: T1, Human fibrin (Homo sapiens, UniProt P02671+P02675+P02679); assay: Binding to human fibrin, dried fibrin microtiter plate, stoichiometric binding model; details: dried human fibrin about 2.5 mg/mL, compound 0.1 to 50 μM, 2 h; read-out: Kd, first binding event
T1 construct: thrombin cleaves fibrinopeptides on fibrinogen resulting in an end-to-end polymerization to give the polymer fibrin; Human fibrinogen (American Diagnostica) was dialyzed; purchased American Diagnostica
T1 sequence (P02671 36-629 limits assumed): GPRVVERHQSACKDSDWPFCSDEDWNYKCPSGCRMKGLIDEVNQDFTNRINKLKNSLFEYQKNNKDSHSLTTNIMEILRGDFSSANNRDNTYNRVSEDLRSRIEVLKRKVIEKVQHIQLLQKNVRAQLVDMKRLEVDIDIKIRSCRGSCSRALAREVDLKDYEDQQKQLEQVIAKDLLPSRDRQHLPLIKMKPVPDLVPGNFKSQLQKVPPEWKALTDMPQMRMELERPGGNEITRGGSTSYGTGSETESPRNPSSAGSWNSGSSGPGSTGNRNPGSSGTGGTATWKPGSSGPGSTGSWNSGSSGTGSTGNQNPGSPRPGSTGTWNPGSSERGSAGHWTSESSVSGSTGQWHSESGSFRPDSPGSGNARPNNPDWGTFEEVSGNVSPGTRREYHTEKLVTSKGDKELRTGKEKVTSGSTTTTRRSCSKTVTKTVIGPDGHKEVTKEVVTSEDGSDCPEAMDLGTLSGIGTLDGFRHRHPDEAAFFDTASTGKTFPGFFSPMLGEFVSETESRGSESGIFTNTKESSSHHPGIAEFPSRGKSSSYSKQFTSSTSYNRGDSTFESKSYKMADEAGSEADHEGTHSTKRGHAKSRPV
T1 sequence (P02675 45-491 limits assumed): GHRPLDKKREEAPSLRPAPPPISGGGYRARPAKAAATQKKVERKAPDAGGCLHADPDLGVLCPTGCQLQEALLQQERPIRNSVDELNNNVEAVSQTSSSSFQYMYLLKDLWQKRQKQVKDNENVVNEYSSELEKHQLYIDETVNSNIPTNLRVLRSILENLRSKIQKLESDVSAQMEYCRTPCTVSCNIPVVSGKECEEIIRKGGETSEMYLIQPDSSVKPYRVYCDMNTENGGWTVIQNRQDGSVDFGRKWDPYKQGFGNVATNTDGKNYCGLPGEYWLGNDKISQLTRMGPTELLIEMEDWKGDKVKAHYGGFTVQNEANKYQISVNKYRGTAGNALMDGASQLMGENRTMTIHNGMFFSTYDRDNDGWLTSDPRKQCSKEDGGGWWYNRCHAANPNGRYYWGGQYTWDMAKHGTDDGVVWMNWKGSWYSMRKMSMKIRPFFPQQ
T1 sequence (P02679 27-437 isoform P02679-2 limits assumed): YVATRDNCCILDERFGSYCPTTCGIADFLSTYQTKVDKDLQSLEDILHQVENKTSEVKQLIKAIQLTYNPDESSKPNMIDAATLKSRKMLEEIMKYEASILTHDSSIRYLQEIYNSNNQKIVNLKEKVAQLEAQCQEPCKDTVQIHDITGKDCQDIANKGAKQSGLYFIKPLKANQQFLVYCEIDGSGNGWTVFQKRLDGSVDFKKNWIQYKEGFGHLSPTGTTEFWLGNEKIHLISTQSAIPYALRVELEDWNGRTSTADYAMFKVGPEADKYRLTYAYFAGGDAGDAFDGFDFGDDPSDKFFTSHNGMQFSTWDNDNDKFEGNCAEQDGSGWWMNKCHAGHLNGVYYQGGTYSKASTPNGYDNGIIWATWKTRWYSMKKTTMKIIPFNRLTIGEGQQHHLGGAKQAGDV
Protocol: Binding can also be assessed by a dried fibrin assay. Here, purified fibrinogen (2.5 mg/mL; 7 μM fibrin) is clotted with thrombin and dried to a thin film in wells of a microtiter plate. The resulting clots bind to the plate without loss of protein. The clots are rehydrated with buffer containing known concentrations of peptide. After incubation at 37° C. for 2 hr, the concentration of peptide in the supernatant ([peptide]free) is determined (e.g. by HPLC or if the peptide is labeled with a fluorophore by fluorescence, or if labeled by a radionuclide concentration is determined by radioactivity). The concentration of fibrin-bound peptide ([peptide]bound) is calculated by subtraction ([peptide]bound)=[peptide]total−[peptide]free). A dissociation constant (Kd) for fibrin binding can be determined by fitting a plot of [peptide]bound versus [peptide]free to either a stoichiometric (see e.g. Nair et al., Angew Chem Int Ed 2008 47:4918-21) or equivalent binding sites model (see e.g. Overoye-Chan et al. J Am Chem Soc 2008 130:6025-39). […]
Solutions of compound ranging from 0.1 to 50 μM were added to each of the wells of the dried fibrin microtiter plate, and the plate was shaken for 2 h. After incubation, solution was removed and the concentration of unbound compound was determined from its radioactivity or by ICP-MS. […]

fibrin gel [1] = assay: MR phantom study at 1.5 T in fibrinogen solution and fibrin gel; details: 25 μM Gd in 5 mg/mL fibrin gel, T1-weighted
Protocol: Fibrinogen (fgn) (50 mg, American Diagnostica) was dissolved in 1 mL of TBS (50 mM Tris, 150 mM sodium chloride, pH 7.4) and was dialyzed against TBS with 5 mM sodium citrate. The concentration of the resulting fibrinogen solution was 8.8 mg/mL based on the absorbance at 280 nm where 1 mg/mL fgn has an optical density of 1.512 for a 1 cm path length. Solutions were prepared by diluting stock solutions of gadolinium probe and fgn to final solutions of 25 μM Gd and 5 mg/mL fgn. Gadolinium concentrations were determined by ICP-MS. Fibrin gels were prepared by adding CaCl2 and thrombin to a final concentration of 7 mM and 4 U/mL, respectively. After briefly mixing the CaCl2 and thrombin, the solutions were allowed to gel/clot for 30 minutes. After fibrin (fbn) formation was complete, the clots were pushed to the wall of the tube with a pipet tip. A total of 6×0.5 mL phantoms were prepared in 1 mL centrifuge tubes: A) pure water; B) 5 mg/mL fibrinogen; C) [Gd(HP-DO3A)] at 25 μM in 5 mg/mL fgn; D) [Gd(HP-DO3A)] at 25 μM in 5 mg/mL fbn gel; E) GdDOTA-cyclic-FBP-p-XD-FITC (compound 17) at 25 μM in 5 mg/mL fgn; F) GdDOTA-cyclic-FBP-p-XD-FITC (compound 17) at 25 μM in 5 mg/mL fbn gel.
All 6 phantoms were simultaneously imaged at room temperature at 1.5 T with a clinical MRI. T1-weighted gradient echo images were acquired with repetition time TR=9.2 ms, echo time TE=1.9 ms, flip angle=25°.

fibrin gel [2] = biological target: T2, fibrin gel (Homo sapiens, UniProt P02671+P02675+P02679); assay: Phantom study with fluorescence imaging in fibrinogen solution and fibrin gel; details: 50 nM in 2 mg/mL fibrin gel
T2 construct: thrombin cleaves fibrinopeptides on fibrinogen resulting in an end-to-end polymerization to give the polymer fibrin; Fibrin is a fibrillar protein derived from the soluble plasma protein fibrinogen
T2 sequence (P02671 36-629 limits assumed): T1 sequence (P02671 36-629 limits assumed)
T2 sequence (P02675 45-491 limits assumed): T1 sequence (P02675 45-491 limits assumed)
T2 sequence (P02679 27-437 isoform P02679-2 limits assumed): T1 sequence (P02679 27-437 isoform P02679-2 limits assumed)
Protocol: A 10 mM solution of fluorescein was prepared in ethanol by adding 0.0113 g of fluorescein to 3 mL EtOH. This solution was diluted in water to prepare a 9.99 μM solution. Also, a dilute solution of GdDOTA-cyclic-FBP-p-XD-FITC was prepared with a final concentration of 8.55 μM. Four phantoms were prepared in 1 mL glass tubes. Each phantom contained fibrinogen at a final concentration of 2 mg/mL, 50 pmol of GdDOTA-cyclic-FBP-p-XD-FITC or fluorescein, at a total volume of 1 mL. In two of the phantoms, fibrin gels were prepared by adding CaCl2 and thrombin to a final concentration of 7 mM and 4 U/mL, respectively. Once the clots had formed, the mixture was centrifuged and the clots settled to the bottom. The 4 phantoms were labeled: A) GdDOTA-cyclic-FBP-p-XD-FITC in fgn; B) GdDOTA-cyclic-FBP-p-XD-FITC in fbn gel; C) fluorescein in fbn gel D) fluorescein in fgn. The phantoms were imaged with an IVIS Spectrum imager.

fibrin gel [3] = biological target: T2, fibrin gel; assay: Phantom study with PET in fibrinogen solution and fibrin gel; details: 2 mg/mL fibrin gel, 150 nCi, 2.3 nmol, 21° C.
Protocol: ^64CuDOTA was prepared by reacting 200 μCi of ^64CuCl2 with DOTA ligand (50 nmol) in 200 μL water at pH 6.5. The pH of the solution was maintained at 6.5 and the reaction was stirred at 50° C. for 30 min. The solution was then passed through a cation-exchange resin. The resin was washed with water and the total final volume was 600 μL.
Six phantoms were prepared in 4 mL glass culture tubes. Each phantom contained fibrinogen (fgn) at a final concentration of 2 mg/mL, 2.3 nmol of peptide or DOTA, a total volume of 2 mL, and a total activity of 150 nCi. In 3 of the phantoms, Fibrin gels (fbn) were prepared by adding CaCl2 and thrombin to a final concentration of 7 mM and 4 U/mL, respectively. Once the clots had formed, the mixture was centrifuged and the clots settled to the bottom. […]
The 6 tubes were placed in a holder with each tube equidistant from the isocenter and PET data was collected for 15 minutes. […] Each of the 32 PET detector modules consists of six 12×12 LSO crystal arrays read out by a 3×3 array of APDs (Hamamatsu 8664-55, Japan). […] The emission data recorded in list-mode format were sorted in the line of response space and compressed axially in the sinogram space for fast reconstruction. The normalization was calculated from a 64-hour scan of a plane-source rotated in the FOV. […]

SMILES | Kd (Human fibrin) [nM] | MR signal distribution between clotted fibrin and supernatant (fibrin gel [1]) | Fluorescence intensity distribution between fibrin clot and liquid (fibrin gel [2]) | PET activity distribution between fibrin clot and liquid above the clot (fibrin gel [3])
CC[C@H](C)[C@H](NC(=O)[C@H](Cc1ccc(O)cc1)NC(=O)[C@@H]1CSSC[C@H](NC(=O)[C@@H](CCC(=O)O)NC(=O)[C@H](Cc2ccc(O)cc2)NC(=O)CCCCCNC(=S)Nc2ccc3c(c2)C(=O)OC32c3ccc(O)cc3Oc3cc(O)ccc32)C(=O)N2C[C@H](O)C[C@H]2C(=O)N[C@@H](Cc2ccc(O)c(Cl)c2)C(=O)NCC(=O)N[C@@H](CC(C)C)C(=O)N1)C(=O)N[C@@H](CCC(N)=O)C(=O)NCc1ccc(CNC(=O)CN2CCN(CC(=O)O)CCN(CC(=O)O)CCN(CC(=O)O)CC2)cc1 [Compound 11, FITC-hexyl-cyclic-FBP-p-XD-DOTA-Gd] ({FITC-Ahx}-Y[dE]C[Hyp][Tyr(3-Cl)]GLCYIQ-{DOTA(p-xylylenediamine)}; disulfide 3-8) | 900 ± 300 | – | – | –
CC[C@H](C)[C@H](NC(=O)[C@H](Cc1ccc(O)cc1)NC(=O)[C@@H]1CSSC[C@H](NC(=O)[C@@H](CCC(=O)O)NC(=O)[C@H](Cc2ccc(O)cc2)NC(=O)CN2CCN(CC(=O)O)CCN(CC(=O)O)CCN(CC(=O)O)CC2)C(=O)N2C[C@H](O)C[C@H]2C(=O)N[C@@H](Cc2ccc(O)c(Cl)c2)C(=O)NCC(=O)N[C@@H](CC(C)C)C(=O)N1)C(=O)N[C@@H](CCC(N)=O)C(=O)NCc1ccc(CNC(=S)Nc2ccc3c(c2)C(=O)OC32c3ccc(O)cc3Oc3cc(O)ccc32)cc1 [Compound 17, GdDOTA-cyclic-FBP-p-XD-FITC] ({DOTA}-Y[dE]C[Hyp][Tyr(3-Cl)]GLCYIQ-X1; disulfide 3-8) | 800 ± 300 | binding to the fibrin | localizes in the fibrin clot | –
CC(O)CN1CCN(CC(=O)[O-])CCN(CC(=O)[O-])CCN(CC(=O)[O-])CC1.[Gd+3] (stereo not drawn) [GdHP-DO3A, reference compound] | – | distributed equally between the clotted fibrin and the supernatant | – | –
O=C([O-])CN1CCN(CC(=O)O)CCN(CC(=O)[O-])CCN(CC(=O)O)CC1.[64Cu+2] [^64CuDOTA] | – | – | – | distributed equally in the clot (bottom of tube B) and in the liquid above the clot
